Experimental data taken from patent publication US20150044305A1, “[…] NITRIC OXIDE FOR TREATING RESPIRATORY DISEASES” (Advanced Inhalation Therapies (AIT) Ltd., priority 2012, published 2015).
Like-named read-outs stand apart in the source and are kept apart here.

Assays:
[1] = tested on: influenza A/victoria/H3N2; conditions: 160 ppm exogenous gNO, virions or incubated cells, MDCK cell model; cited from earlier work
S. aureus (ATCC) = conditions: 200 ppm gNO, saline suspension; cited from earlier work
[2] = cited from earlier work
P. aeruginosa (ATCC) = conditions: 200 ppm gNO, saline suspension; cited from earlier work
Klebsiella sp.#2 = conditions: 200 ppm gNO, saline suspension; cited from earlier work
Klebsiella sp.#3 = conditions: 200 ppm gNO, saline suspension; cited from earlier work
[3] = Phase I safety study: serum nitrite/nitrate by Griess reagent; assay type: in vivo, human; conditions: during the trial, 160 ppm gNO
Experimental: (§1) After obtaining informed consent, treatment was initiated within 5 days of enrollment. Subjects were housed in a hospital ward and received 160 ppm gNO for 30 minutes every four hours (Q4 h), five times a day, for five consecutive days by inhalation. Subjects returned for follow-up evaluations 3, 7 and 21 days after the final gNO administration. Subject safety was determined by monitoring vital signs, methemoglobin levels, lung function, blood chemistry, hematology, prothrombin time, inflammatory cytokine/chemokines levels and endothelial activation.
(§2) These parameters were measured continuously during every gNO administration course and for 3.5 hours after the first treatment of the day. Daily serum samples were collected and frozen at −80° C. and the serum […] level was measured using the Griess reagent.

S. aureus = conditions: cited from earlier work
MRSA = conditions: 200 ppm gNO, saline suspension; cited from earlier work
[4] = Phase I safety study: inspiratory NO2 level during gNO administration; assay type: in vivo, human; conditions: inspired gas, 160 ppm gNO
From the text: (§3) The levels of gNO, NO2, O2 and methemoglobin were monitored during the administration of gNO. The target gas mixture was 160 ppm gNO with a nitrogen dioxide (NO2) level of less than 5 ppm and an oxygen (O2) level ranging from 21% to 25%. Inspiratory NO, NO2 and O2 levels were continuously monitored by sampling from the mouthpiece sample port located about 6 millimeters from the mouth of the subject with an AeroNOx (Pulmonox, AB, Canada) NO, NO2 and O2 electrochemical analyzer. Delivery safety was determined by the number of occasions that NO2 exceeded 5 ppm, gNO exceeding 10% variation and O2 dropping below 20% during gNO administration. A commercially available noninvasive pulse oximeter (Rad 57, Masimo Corporation, USA) was used to measure saturation levels at the periphery of methemoglobin (SpMet).

Pseudomonas aeruginosa = conditions: inhaled, intermittent 30 minute exposures, 160 ppm gNO; cited from earlier work
[5] = Phase I safety study: pulmonary function tests; assay type: in vivo, human
Experimental: as §1
Subjects underwent full pulmonary function tests (PFT), including lung diffusing capacity (DLCO) by a trained technician utilizing a calibrated pulmonary function system (Jaeger MasterScreen, VIASYS Healthcare, USA) on screening and days 2, 8, 12 and 26. Spirometry test (Microloop by Micro Medical, England) was performed on days 1, 3 and 4. Effect of gNO on lung function and DLCO was determined by changes from baseline, treatment days and follow up days.

Group B Streptococci = conditions: 200 ppm gNO, saline suspension; cited from earlier work
methemoglobin = assay: Phase I safety study: methemoglobin (SpMet) by pulse oximeter; assay type: in vivo, human
Experimental: as §1, §3, §2

Mycobacterium = conditions: 200 ppm gNO, saline suspension; cited from earlier work
Acinetobacter sp. = conditions: 200 ppm gNO, saline suspension; cited from earlier work
[6] = tested on: all microorganisms tested; conditions: 200 ppm gNO, cited from earlier work
[7] = tested on: human respiratory syncytial virus (rgRSV30); assay: RSV plaque assay after 30 minutes exposure to 160 ppm gNO; assay type: cell-based; conditions: single exposure of 30 minutes to 160 ppm gNO; for reduction of virus viability (factor): vs ambient air
Experimental: The efficacy of treating viral infection by respiratory syncytial virus by the methods presented herein was tested by exposure for 30 minutes of human respiratory syncytial virus (rgRSV30) to a gas mixture containing 160 ppm nitric oxide, using standard plaque assay as described hereinabove.
FIGS. 3A-D present the data obtained in the experiment using tissue culture samples harboring human rgRSV30, coupled to a green fluorescent protein, wherein the control experiment the samples were exposed to a ambient air (data not shown), and the tested samples having a starting viral level of 2000 PFU (FIG. 3A), 1000 PFU (FIG. 3B) and 500 PFU (FIG. 3C), were exposed to 160 ppm gNO for 30 minutes, whereas FIG. 3D presents a comparative bar plot comparing the control to test results.

S. maltophilia = conditions: 200 ppm gNO, saline suspension; cited from earlier work
[8] = continuous delivery of 80 ppm gNO; cited from earlier work
[9] = levels of gNO greater than 120 ppm
[10] = vs baseline during the course of the study
[11] = saline suspension, average over the bacteria of Table 1

## [N]=O [gNO, nitric oxide]
[1]
  viral replication and infectivity: reduced not only viral replication but also their infectivity
S. aureus (ATCC)
  LD100: 4 h
  Latent Period: 3 h
  −2.5 Log10 (hours): 3.3 hours
[2]; 300 ppm gNO, groups of 10 rats, first 1-2 days
  mortality: Six of the animals treated with 300 ppm gNO died
[2]; 400 ppm gNO, 6 continuous hours per day, rats
  mortality: all of the animals died on the first day
[2]; 500 ppm gNO, 6 continuous hours per day, rats
  mortality: all of the animals died on the first day
[2]; 500 ppm gNO, rats
  MetHb level: 67 percents
P. aeruginosa (ATCC)
  LD100: 3 h
  Latent Period: 1 h
  −2.5 Log10 (hours): 2.1 hours
Klebsiella sp.#2
  LD100: 5 h
  Latent Period: 2 h
  −2.5 Log10 (hours): 4.1 hours
Klebsiella sp.#3
  LD100: 6 h
  Latent Period: 3 h
  −2.5 Log10 (hours): 5.1 hours
[3]
  serum nitrite/nitrate levels vs baseline: no significant differences
S. aureus; [9]
  reduction of colony formation: greater than 90%
  time required to achieve greater than 90% reduction of colony formation: 8 to 12 h
S. aureus; solid media, increasing gNO concentration up to 160 ppm, vs medical air
  survival (downward bactericidal trend): 5-10%
MRSA
  LD100: 5 h
  Latent Period: 3 h
  −2.5 Log10 (hours): 4.2 hours
[4]
  highest NO2 level recorded during the treatments: 2.8 ppm
Pseudomonas aeruginosa
  pulmonary bioburden and leukocyte infiltration: effective to reduce the pulmonary bioburden and leukocyte infiltration
[5]; during and after gNO administration
  pulmonary function tests: did not reveal any abnormalities
[5]; vs baseline
  DLCO: did not change from baseline
  forced vital capacity (FVC): did not change from baseline
  residual volume (RV): did not change from baseline
  total lung capacity (TLC): did not change from baseline
[5]; [10]
  FEV1: did not differ from baseline
  maximum mid-expiratory flow (MMEF): did not differ from baseline
Group B Streptococci
  LD100: 2 h
  Latent Period: 1 h
  −2.5 Log10 (hours): 1.5 hours
methemoglobin; 3, 7 and 21 days after the final exposure to gNO
  residual increase in SpMet at follow-up: did not show any residual increase
methemoglobin; 160 ppm gNO 30 minutes, five times a day, five days
  all 930 recorded methemoglobin percent levels (SpMet): < 5%
methemoglobin; 160 ppm gNO, p<0.001
  SpMet increase between pretreatment and post treatment: about 1%
methemoglobin; after 160 ppm gNO administration
  time for SpMet to return to baseline: 3.5 h
methemoglobin; after five daily treatments for five consecutive days
  accumulative or lingering effect on SpMet: no accumulative or lingering effect
methemoglobin; at the end of the 160 ppm gNO treatment
  highest SpMet: 2.5%
methemoglobin; single 30 minutes treatment course, 160 ppm gNO, ten individuals
  average increase of SpMet: 0.9%
Mycobacterium
  LD100: 10 h
  Latent Period: 7 h
  −2.5 Log10 (hours): 9.2 hours
Acinetobacter sp.
  LD100: 6 h
  Latent Period: 4 h
  −2.5 Log10 (hours): 5 hours
[6]; every bacteria challenged
  reduction in CFU/mL: ≥ 3 log10 CFU/mL
[6]; [11]
  LD100 (hours), Average: 4.77 h
  Latent Period (hours), Average: 2.77 h
  −2.5 Log10 (hours), Average: 3.82 hours
[7]; starting 500 PFU
  viral viability: substantially nullified
[7]; starting 1000 PFU
  reduction of virus viability (factor): ~10
[7]; starting 2000 PFU
  reduction of virus viability (factor): ~10
S. maltophilia
  LD100: 4 h
  Latent Period: 2 h
  −2.5 Log10 (hours): 2.8 hours
[8]
  subjects with SpMet exceeding 7%: 35%
